According to the supplement of paper PMC4862054:

What was measured:
Settings in all cases: incubation time: 72 h
[1] = test system: BT-474; test: normalised response (% of control), CellTiter-Glo; higher = more viable cells (100 = DMSO, 0 = benzethonium chloride kill control)
How it was run: (§1)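 Breast cancer cell lines (20 µl suspension) were seeded into 384-well plates holding compound at 5 concentrations in 10-fold steps over a compound-specific 10,000-fold range, then incubated 72 h. CellTox Green fluorescence (485/520 nm) was read first, then CellTiter-Glo luminescence after 10 min at room temperature. Each plate was normalised to 0.1 % DMSO (100) and a positive kill control (0). Each value is the normalised signal at a single concentration of the series.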

[2] = test system: BT-549; test: as above
How it was run: as §1

[3] = test system: CAL-120; test: as above
How it was run: as §1

[4] = test system: CAL-148; test: as above
How it was run: as §1

[5] = test system: CAL-51; test: as above
How it was run: as §1

[6] = test system: CAL-85-1; test: as above
How it was run: as §1

[7] = test system: DU-4475; test: as above
How it was run: as §1

[8] = test system: HCC1143; test: as above
How it was run: as §1

[9] = test system: HCC1599; test: as above
How it was run: as §1

[10] = test system: HCC1937; test: as above
How it was run: as §1

[11] = test system: HDQ-P1; test: as above
How it was run: as §1

[12] = test system: Hs578T; test: as above
How it was run: as §1

[13] = test system: MCF-10A; test: as above
How it was run: as §1

[14] = test system: MDA-MB-231; test: as above
How it was run: as §1

[15] = test system: MDA-MB-436; test: as above
How it was run: as §1

[16] = test system: MDA-MB-453; test: as above
How it was run: as §1

[17] = test system: MDA-MB-468; test: as above
How it was run: as §1

[18] = test system: MFM-223; test: as above
How it was run: as §1

[19] = test system: SK-BR-3; test: as above
How it was run: as §1

[20] = test system: BT-474; test: normalised viability (% of control), CellTiter-Blue; higher = more viable cells (100 = DMSO, 0 = benzethonium chloride kill control)
Experimental: (§2)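 DSRT, CellTiter-Blue viability, 72 h incubation. Signal is normalised to DMSO and benzethonium chloride controls. Value is the normalised response at dose 1.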

[21] = test system: BT-549; test: as above
Experimental: as §2

[22] = test system: CAL-120; test: as above
Experimental: as §2

[23] = test system: CAL-148; test: as above
Experimental: as §2

[24] = test system: CAL-51; test: as above
Experimental: as §2

[25] = test system: CAL-85-1; test: as above
Experimental: as §2

[26] = test system: DU-4475; test: as above
Experimental: as §2

[27] = test system: HCC1143; test: as above
Experimental: as §2

[28] = test system: HCC1599; test: as above
Experimental: as §2

[29] = test system: HCC1937; test: as above
Experimental: as §2

[30] = test system: HDQ-P1; test: as above
Experimental: as §2

[31] = test system: Hs578T; test: as above
Experimental: as §2

[32] = test system: MDA-MB-231; test: as above
Experimental: as §2

[33] = test system: MDA-MB-436; test: as above
Experimental: as §2

[34] = test system: MDA-MB-453; test: as above
Experimental: as §2

[35] = test system: MDA-MB-468; test: as above
Experimental: as §2

[36] = test system: MFM-223; test: as above
Experimental: as §2

[37] = test system: SK-BR-3; test: as above
Experimental: as §2

| SMILES | normalised response [1] | normalised response [2] | normalised response [3] | normalised response [4] | normalised response [5] | normalised response [6] | normalised response [7] | normalised response [8] | normalised response [9] | normalised response [10] | normalised response [11] | normalised response [12] | normalised response [13] | normalised response [14] | normalised response [15] | normalised response [16] | normalised response [17] | normalised response [18] | normalised response [19] | normalised viability [20] | normalised viability [21] | normalised viability [22] | normalised viability [23] | normalised viability [24] | normalised viability [25] | normalised viability [26] | normalised viability [27] | normalised viability [28] | normalised viability [29] | normalised viability [30] | normalised viability [31] | normalised viability [32] | normalised viability [33] | normalised viability [34] | normalised viability [35] | normalised viability [36] | normalised viability [37] |
| --- | --- | --- | --- | --- | --- | --- | --- | --- | --- | --- | --- | --- | --- | --- | --- | --- | --- | --- | --- | --- | --- | --- | --- | --- | --- | --- | --- | --- | --- | --- | --- | --- | --- | --- | --- | --- | --- |
| COc1cc(Nc2c(C#N)cnc3cc(OCCCN4CCN(C)CC4)c(OC)cc23)c(Cl)cc1Cl [Bosutinib] (1 nM) | 98.8% | 98.4% | 92.6% | 104% | 99.9% | 96.4% | 101% | 93% | 112% | 97.3% | 99.6% | 95.6% | 99.9% | 93.1% | 96.6% | 101% | 101% | 99.3% | 104% | 116% | 111% | 84.3% | 94.8% | 112% | 88.8% | 105% | 94% | 103% | 80.1% | 108% | 110% | 100% | 113% | 113% | 112% | 93.1% | 106% |
| Cn1cc(C2=C(c3cn(C4CCN(Cc5ccccn5)CC4)c4ccccc34)C(=O)NC2=O)c2ccccc21 [Enzastaurin] (1 nM) | 96.4% | 102% | 98.3% | 104% | 61.3% | 105% | 101% | 96.6% | 102% | 96.9% | 96.8% | 105% | 106% | 98.5% | 94.2% | 109% | 104% | 103% | 109% | 105% | 113% | 86.2% | 98.9% | 114% | 86.3% | 108% | 92.5% | 104% | 97.2% | 107% | 98.2% | 87.5% | 130% | 96.4% | 99% | 82.1% | 92.5% |
| CC(C)(C)NC(=O)[C@H]1CC[C@H]2[C@@H]3CC[C@H]4NC(=O)C=C[C@]4(C)[C@H]3CC[C@]12C [Finasteride] (1 nM) | 101% | 103% | 99.5% | 103% | 94.5% | 96% | 102% | 99% | 98.8% | 96.1% | 102% | 104% | 111% | 107% | 99.5% | 112% | 104% | 102% | 103% | 72.8% | 93.1% | 104% | 110% | 108% | 97% | 96.7% | 107% | 91.6% | 100% | 133% | 108% | 108% | 98.7% | 109% | 105% | 96.4% | 74.8% |
| Nc1ccn([C@@H]2O[C@H](CO)[C@@H](O)C2(F)F)c(=O)n1 [Gemcitabine] (0.1 nM) | 97% | 98.4% | 93.6% | 96% | 101% | 94.2% | 99.9% | 92.6% | 97.4% | 95.8% | 95.1% | 106% | 99.7% | 94.5% | 102% | 107% | 95.8% | 94.5% | 93.4% | 87% | 108% | 96.5% | 103% | 105% | 96.8% | 93.5% | 101% | 89.4% | 76.1% | 111% | 114% | 94.6% | 108% | 109% | 100% | 101% | 102% |
| CC(C)C[C@H](NC(=O)[C@@H](COC(C)(C)C)NC(=O)[C@H](Cc1ccc(O)cc1)NC(=O)[C@H](CO)NC(=O)[C@H](Cc1c[nH]c2ccccc12)NC(=O)[C@H](Cc1cnc[nH]1)NC(=O)[C@@H]1CCC(=O)N1)C(=O)N[C@@H](CCCNC(=N)N)C(=O)N1CCC[C@H]1C(=O)NNC(N)=O [Goserelin] (1 nM) | 99.2% | 105% | 99.6% | 84.5% | 122% | 96.4% | 95.1% | 96.7% | 96% | 92.7% | 97.3% | 96.1% | 94.8% | 103% | 102% | 108% | 101% | 96.7% | 96.8% | 82.1% | 93.1% | 104% | 109% | 110% | 87.7% | 99.3% | 94.3% | 114% | 86.5% | 111% | 106% | 103% | 102% | 102% | 91.7% | 96% | 93.3% |
| CC(=O)[C@]1(O)Cc2c(O)c3c(c(O)c2[C@@H](O[C@H]2C[C@H](N)[C@H](O)[C@H](C)O2)C1)C(=O)c1ccccc1C3=O [Idarubicin] (0.1 nM) | 106% | 105% | 105% | 110% | 101% | 102% | 103% | 109% | 102% | 100% | 101% | 107% | 103% | 109% | 112% | 101% | 112% | 108% | 105% | 99.8% | 109% | 101% | 102% | 102% | 95.7% | 92.2% | 103% | 96.6% | 92.9% | 115% | 112% | 78% | 112% | 101% | 130% | 97% | 95.3% |
| C/C(=C\c1csc(C)n1)[C@@H]1C[C@@H]2O[C@]2(C)CCC[C@H](C)[C@H](O)[C@@H](C)C(=O)C(C)(C)[C@@H](O)CC(=O)N1 [Ixabepilone] (0.1 nM) | 104% | 98.8% | 95.5% | 99.3% | 80% | 97.6% | 101% | 98.5% | 115% | 98% | 100% | 100% | 107% | 103% | 105% | 127% | 104% | 103% | 108% | 90.4% | 90.8% | 78.8% | 105% | 110% | 84% | 107% | 80.9% | 97.3% | 89.2% | 97.2% | 90% | 99.1% | 104% | 93.5% | 86.7% | 78.8% | 79.6% |
